Blank lines part the entries; values can stand above or below the compound they belong to. Active and inactive are the calls of the source. Unless noted, the calls are words filed in the database; no cut-off is given here.
How the values were obtained:
[1] = reduced cellular PGC1a acetyl-lysine signal – cell-based, cherry-picked samples, dose response (AID 720514); format: functional;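 further: potency may reflect raised or lowered acetylation signal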
[2] = target: T1, Short transient receptor potential channel 4 (Mus musculus, UniProt Q9QUQ5); experiment: block of DAMGO-driven TRPC4 calcium entry – cell-based, HEK293 TRPC4/mu-opioid, Fluo-4 calcium, dose response (AID 434942); format: functional;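 further: potency of inhibitors blocking the TRPC4 calcium response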
T1 sequence (Q9QUQ5 whole entry): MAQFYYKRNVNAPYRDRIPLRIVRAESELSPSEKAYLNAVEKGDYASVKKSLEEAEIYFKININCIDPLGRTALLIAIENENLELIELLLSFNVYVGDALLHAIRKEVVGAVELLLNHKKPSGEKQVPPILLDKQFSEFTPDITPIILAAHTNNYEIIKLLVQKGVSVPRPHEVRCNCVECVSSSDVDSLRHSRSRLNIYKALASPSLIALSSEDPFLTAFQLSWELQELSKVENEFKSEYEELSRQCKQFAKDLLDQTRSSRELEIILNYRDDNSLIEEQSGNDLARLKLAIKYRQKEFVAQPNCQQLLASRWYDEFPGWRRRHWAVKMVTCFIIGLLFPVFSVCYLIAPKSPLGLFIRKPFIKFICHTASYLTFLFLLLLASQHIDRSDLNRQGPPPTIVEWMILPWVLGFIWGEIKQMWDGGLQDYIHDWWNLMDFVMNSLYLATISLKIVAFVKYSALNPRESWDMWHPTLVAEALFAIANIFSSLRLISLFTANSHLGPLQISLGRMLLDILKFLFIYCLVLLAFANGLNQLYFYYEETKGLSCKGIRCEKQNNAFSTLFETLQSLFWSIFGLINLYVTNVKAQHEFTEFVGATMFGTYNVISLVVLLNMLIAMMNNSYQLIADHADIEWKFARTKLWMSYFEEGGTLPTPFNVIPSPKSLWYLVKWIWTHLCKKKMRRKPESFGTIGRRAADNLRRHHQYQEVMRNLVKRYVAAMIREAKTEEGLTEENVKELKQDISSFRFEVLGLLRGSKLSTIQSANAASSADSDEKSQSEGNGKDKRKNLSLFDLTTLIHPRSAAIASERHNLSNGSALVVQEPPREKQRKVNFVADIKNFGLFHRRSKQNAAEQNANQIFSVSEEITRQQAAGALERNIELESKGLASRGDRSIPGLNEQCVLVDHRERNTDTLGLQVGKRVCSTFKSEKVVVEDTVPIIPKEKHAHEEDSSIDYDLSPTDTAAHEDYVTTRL

[3] = target: Kappa-type opioid receptor (Homo sapiens, UniProt P41145); experiment: Late-stage fluorescence-based cell-based dose response assay for antagonists of kappa opioid receptor 1 (OPRK1).; format: functional
[4] = target: Sphingosine 1-phosphate receptor 1 (Homo sapiens, UniProt P21453); experiment: Late-stage counterscreen for antagonists of kappa opioid receptor 1 (OPRK1): fluorescence-based cell-based dose response assay to identify antagonists of Sphingosine 1-Phosphate Receptor 1 (S1P1).; format: functional
[5] = target: Mu-type opioid receptor (Homo sapiens, UniProt P35372); experiment: Late-stage results from the probe development effort to identify antagonists of OPRK1: luminescence-based cell-based dose response OPRM1 counterscreen, Set 2.; format: functional
[6] = target: Delta-type opioid receptor (Homo sapiens, UniProt P41143); experiment: Late-stage results from the probe development effort to identify antagonists of OPRK1: fluorescence-based cell-based dose response OPRD1 counterscreen, Set 2.; format: functional
[7] = cells; details: HEK293
[8] = test system: HeLa; experiment: viability loss in HeLa cells – cell-based, ATP luminescence, cherry-pick samples, cytotoxicity control, dose response (AID 687004); format: functional; details: Homo sapiens
[9] = test system: HEK293; experiment: viability loss in HEK293T cells – cell-based, ATP luminescence, cherry-pick samples, cytotoxicity control, dose response (AID 687005); format: functional; details: Homo sapiens;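 further: cells exposed to compound for 48 hours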
[10] = HEK293 Cytotoxicity Assay Measured in Cell-Based System Using Plate Reader - 7071-01_Inhibitor_Dose_CherryPick_Activity_Set2.; format: functional

Sequence of Delta-type opioid receptor (P41143 whole entry): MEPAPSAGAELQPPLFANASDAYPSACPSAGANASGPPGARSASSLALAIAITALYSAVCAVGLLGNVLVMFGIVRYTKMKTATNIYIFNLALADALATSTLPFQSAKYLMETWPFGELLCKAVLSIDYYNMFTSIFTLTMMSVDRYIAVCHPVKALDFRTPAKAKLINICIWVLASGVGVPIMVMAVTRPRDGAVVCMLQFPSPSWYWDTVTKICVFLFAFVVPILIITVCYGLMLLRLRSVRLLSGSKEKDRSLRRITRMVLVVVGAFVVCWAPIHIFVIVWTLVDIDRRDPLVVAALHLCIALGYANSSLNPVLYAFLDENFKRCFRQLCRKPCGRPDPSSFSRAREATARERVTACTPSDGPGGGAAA
Sequence of Mu-type opioid receptor (P35372 whole entry): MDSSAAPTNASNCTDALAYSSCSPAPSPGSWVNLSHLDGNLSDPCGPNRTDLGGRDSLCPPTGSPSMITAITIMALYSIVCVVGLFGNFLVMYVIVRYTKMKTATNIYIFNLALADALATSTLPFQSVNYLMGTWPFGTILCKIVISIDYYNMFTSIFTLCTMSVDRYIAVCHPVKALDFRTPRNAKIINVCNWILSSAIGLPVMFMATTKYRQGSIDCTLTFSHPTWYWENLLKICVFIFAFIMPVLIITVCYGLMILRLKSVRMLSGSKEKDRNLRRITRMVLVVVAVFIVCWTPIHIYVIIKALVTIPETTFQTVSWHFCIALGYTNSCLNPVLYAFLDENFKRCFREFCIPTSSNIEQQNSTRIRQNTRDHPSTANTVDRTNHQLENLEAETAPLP
Sequence of Kappa-type opioid receptor (P41145 whole entry): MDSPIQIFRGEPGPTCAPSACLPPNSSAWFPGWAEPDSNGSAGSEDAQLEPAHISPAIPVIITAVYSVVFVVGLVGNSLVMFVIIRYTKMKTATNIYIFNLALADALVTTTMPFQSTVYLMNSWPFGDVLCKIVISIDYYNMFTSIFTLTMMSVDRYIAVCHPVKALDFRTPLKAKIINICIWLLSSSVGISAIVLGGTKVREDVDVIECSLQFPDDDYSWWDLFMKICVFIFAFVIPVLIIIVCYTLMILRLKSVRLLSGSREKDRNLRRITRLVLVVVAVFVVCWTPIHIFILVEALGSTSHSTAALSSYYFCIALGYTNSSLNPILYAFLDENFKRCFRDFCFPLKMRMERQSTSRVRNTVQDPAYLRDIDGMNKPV
Sequence of Sphingosine 1-phosphate receptor 1 (P21453 whole entry): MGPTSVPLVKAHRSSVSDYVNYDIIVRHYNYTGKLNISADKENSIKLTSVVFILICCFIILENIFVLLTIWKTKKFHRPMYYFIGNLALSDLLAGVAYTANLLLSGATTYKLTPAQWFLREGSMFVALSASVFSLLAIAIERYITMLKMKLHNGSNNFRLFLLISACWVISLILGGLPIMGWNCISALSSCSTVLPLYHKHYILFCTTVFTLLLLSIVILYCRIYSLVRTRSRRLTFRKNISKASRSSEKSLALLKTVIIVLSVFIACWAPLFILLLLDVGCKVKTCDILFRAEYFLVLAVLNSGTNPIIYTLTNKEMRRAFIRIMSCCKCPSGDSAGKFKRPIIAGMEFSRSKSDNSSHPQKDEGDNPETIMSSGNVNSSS

SMILES: CCOC(=O)C1(Cc2cccc(F)c2)CCN(Cc2c(C)nn(CC)c2C)CC1
- AC50 [1]: 28.8 µM (active)
- EC50 [2]: 1.06 µM (active)

- IC50 [3]: 2.2 µM (active)
- IC50 [4]: > 50 µM (inactive)
- IC50 [5]: > 50 µM (inactive)
- IC50 [6]: > 50 µM (inactive)
SMILES: COc1cc([N+](=O)[O-])c(OC)cc1SCc1nnc(S)n1-c1ccc(C)cc1

SMILES: Cc1c(C(=O)NCc2ccc(Cl)c(Cl)c2)sc(=O)n1Cc1cccc(F)c1
- AC50 [7]: > 52 µM (inactive)

SMILES: Cc1cccc(-c2ccc([C@@H]3[C@H]4CN(C(=O)c5ccc6c(c5)OCO6)CCCCN4[C@H]3CO)cc2)c1
- AC50 [8]: 20.2 µM (active)
- AC50 [9]: 8.23 µM (active)
- AC50 [10]: 8.23 µM (active)
